Where two headings read alike, the source gives them in different places.
Assays:
H. pylori [1] = conditions: bacterial count 1×10^6 CFU/mL; cited from earlier work
H. pylori [2] = experiment: Verification of resistance breakpoint: growth of laboratory strains on Columbia solid culture medium with added antibiotics, 72 hours; format: cell-based, Helicobacter pylori
Experimental: The plates are cooled and inverted for approximately 10 mL/piece, marked properly for the subsequent use.
(2) Preparation of bacterial solution: H. pylori grown in logarithmic phase on a solid plate is taken to prepare a bacterial suspension by using BHI. The concentration OD600 is adjusted to 0.3 (1×10^8 CFU/mL), diluted 10 times for the subsequent use.
(3) Inoculation of bacterial solution: 10 μL of bacterial solution is taken and added to Columbia culture medium and the results are determined after cultivating for 72 hours.
(4) Result determination: the minimum drug concentration for no growth of bacteria on the plate is the minimum inhibitory concentration of the bacteria against the drug.

[3] = test system: clinical H. pylori strain; experiment: Drug resistance testing of clinical specimens on characteristic culture medium (discoloration after 36 hours); format: cell-based, Helicobacter pylori
Experimental: (§1) The characteristic culture media (A, B, C, D, E) are cultivated at a constant temperature of 37° C. for 36 hours in a three gas incubator. The characteristic culture media are removed and placed in a natural environment for 30 minutes to observe whether there are discolorations at the point of the culture medium where the specimen is dropped in. […] Another 100 μL of the specimen is taken and coated on Columbia solid culture medium and cultivated in a three gas incubator at a constant temperature of 37° C. for 3 days to 5 days. The number of colonies on the plate is counted to determine the initial inoculation amount. The micro dilution method is adopted to test the MIC of clinical specimen H. pylori, the test is meaningful only when there is no bacterial growth in the negative control well without bacteria and there is bacterial growth in the positive well with bacteria but without antibiotics.
(1) Transfer liquid preparation: after sterilization and cooling, BHI culture medium is added with 10% calf serum, followed by 30% glycerol to prepare H. pylori preservation solution. On this basis, 1% H. pylori selective additive is added to prepare the transfer liquid. 1 mL of transfer solution is taken into a sterile EP tube, and 6-8 sterilized small steel balls are poured into the EP tube for the subsequent use.
(3) Specimen acquisition: a biopsy tissue group is obtained from the gastric antrum and a small curvature side of the gastric body through a gastroscopy biopsy passage and placed into an EP tube (strictly sterile operation). The biopsy tissue is placed on the ice surface and transferred as soon as possible (within 2 hours) to complete the subsequent steps.
(4) Preparation of bacterial solution containing tissue: the EP tube containing tissue is placed in a homogenizer at 300 hz and crushed for 5 minutes, transferred to another EP, centrifuged at 12000 rpm for 2 minutes, the supernatant is discarded, BHI is resuspended to 200 μL, and a bacterial suspension is prepared for the subsequent use.
(5) Inoculation of bacterial solution: 10 μL of bacterial solution is taken and added dropwise to the characteristic culture medium (5 pieces in total). The characteristic culture medium is removed after cultivating in a three gas incubator at 37° C. for 36 hours, and the results are determined after leaving for 30 minutes; another 100 μL is taken and coated onto Colombian culture medium for the traditional bacterial culture.

H. pylori [4] = experiment: Drug resistance testing of laboratory strains on characteristic culture medium (discoloration after 36 hours); format: cell-based, Helicobacter pylori
Experimental: as §1, with “antibiotics. […] The results are recorded and whether the micro dilution method and characteristic culture medium are consistent with each other in evaluating the drug resistance of clinical H. pylori strains is compared. […]” for “antibiotics.”
(2) Inoculation of bacterial solution: 10 μL bacterial solution is taken and added dropwise onto a characteristic culture medium with 5 pieces (ABCDE) in total.
(3) Culture: all plates are moved to a three gas incubator and cultivated at 37° C. for 36 hours. After being taken out and placed in a natural environment for 30 minutes, whether the bacteria have resistance is determined based on the discoloration of the characteristic culture medium.

[5] = test system: clinical H. pylori strain; experiment: MIC of clinical H. pylori strains by micro dilution method; format: cell-based; conditions: Helicobacter pylori, 72 h, approximately 1.0×10^6 CFU/mL per well, 72 hours, read-out: MIC
Experimental: as §1
H. pylori single colony grown on Colombian culture medium is taken (which is confirmed as H. pylori by urease, oxidase, catalase, and PCR testing of CagA gene, as illustrated in FIG. 13) and the bacteria are increased. During the preparation of MIC plates and bacterial solution, H. pylori with logarithmic growth phase is taken to prepare a bacterial suspension by using BHI. The concentration OD600 is adjusted to 0.3 (1×10^8 CFU/mL, diluted 10 times, 10 μL is taken and added to wells 1-8 (with a bacterial solution concentration of approximately 1.0×10^6 CFU/mL per well, cultivated for 72 hours to determine the results.

Cc1ncc([N+](=O)[O-])n1CCO [Metronidazole, metronidazole]
resistance breakpoints of H. pylori according to CLSI guidelines (H. pylori [1]): 8 µg/mL
optimal concentration for adding antibiotics (H. pylori [2]; conclusion of breakpoint verification): 4 µg/mL
growth of sensitive strains (H. pylori [2]; levofloxacin 0.5, clarithromycin 0.5, metronidazole 4, amoxicillin 0.5 μg/mL): no sensitive strain grows
growth of bacterial (H. pylori [2]; strain 159, antibiotic 2 μg/mL): +
growth of bacterial (H. pylori [2]; strain 159, antibiotic 4 μg/mL): +
growth of bacterial (H. pylori [2]; strain 159, antibiotic 8 μg/mL): −
growth of bacterial (H. pylori [2]; strain 161, antibiotic 2 μg/mL): +
growth of bacterial (H. pylori [2]; strain 161, antibiotic 4 μg/mL): +
growth of bacterial (H. pylori [2]; strain 161, antibiotic 8 μg/mL): −
growth of bacterial (H. pylori [2]; strain 162, antibiotic 2 μg/mL): +
growth of bacterial (H. pylori [2]; strain 162, antibiotic 4 μg/mL): −
growth of bacterial (H. pylori [2]; strain 162, antibiotic 8 μg/mL): −
growth of bacterial (H. pylori [2]; strain 163, antibiotic 2 μg/mL): +
growth of bacterial (H. pylori [2]; strain 163, antibiotic 4 μg/mL): +
growth of bacterial (H. pylori [2]; strain 163, antibiotic 8 μg/mL): −
growth of bacterial (H. pylori [2]; strain 286, antibiotic 2 μg/mL): +
growth of bacterial (H. pylori [2]; strain 286, antibiotic 4 μg/mL): +
growth of bacterial (H. pylori [2]; strain 286, antibiotic 8 μg/mL): −
growth of bacterial (H. pylori [2]; strain 287, antibiotic 2 μg/mL): +
growth of bacterial (H. pylori [2]; strain 287, antibiotic 4 μg/mL): +
growth of bacterial (H. pylori [2]; strain 287, antibiotic 8 μg/mL): −
growth of bacterial (H. pylori [2]; strain 289, antibiotic 2 μg/mL): +
growth of bacterial (H. pylori [2]; strain 289, antibiotic 4 μg/mL): +
growth of bacterial (H. pylori [2]; strain 289, antibiotic 8 μg/mL): −
growth of bacterial (H. pylori [2]; strain 290, antibiotic 2 μg/mL): +
growth of bacterial (H. pylori [2]; strain 290, antibiotic 4 μg/mL): +
growth of bacterial (H. pylori [2]; strain 290, antibiotic 8 μg/mL): +
growth of bacterial (H. pylori [2]; strain 26695, antibiotic 2 μg/mL): +
growth of bacterial (H. pylori [2]; strain 26695, antibiotic 4 μg/mL): −
growth of bacterial (H. pylori [2]; strain 26695, antibiotic 8 μg/mL): −
growth of bacterial (H. pylori [2]; strain G27, antibiotic 2 μg/mL): +
growth of bacterial (H. pylori [2]; strain G27, antibiotic 4 μg/mL): −
growth of bacterial (H. pylori [2]; strain G27, antibiotic 8 μg/mL): −
drug resistance determined on characteristic culture medium ([3]; clinical H. pylori strain FY-31): sensitive
drug resistance determined on characteristic culture medium ([3]; clinical H. pylori strain FY-43): sensitive
drug resistance determined on characteristic culture medium ([3]; clinical H. pylori strain FY-47): resistant
drug resistance determined on characteristic culture medium ([3]; clinical H. pylori strain FY-52): sensitive
drug resistance determined by discoloration of characteristic culture medium (H. pylori [4]; strain 159, 1×10^6 CFU/mL): developed resistance
drug resistance determined by discoloration of characteristic culture medium (H. pylori [4]; strain 286, 1×10^6 CFU/mL): have developed resistance
drug resistance determined by discoloration of characteristic culture medium (H. pylori [4]; strain 287, 1×10^6 CFU/mL): have developed resistance
drug resistance determined by discoloration of characteristic culture medium (H. pylori [4]; strain 289, 1×10^6 CFU/mL): have developed resistance
drug resistance determined by discoloration of characteristic culture medium (H. pylori [4]; strain G27, 1×10^6 CFU/mL): does not develop resistance
MIC ([5]; clinical strain FY-31): 1 µg/mL
MIC ([5]; clinical strain FY-43): 0.5 µg/mL
MIC ([5]; clinical strain FY-47): 16 µg/mL
MIC ([5]; clinical strain FY-52): 1 µg/mL

Reference: patent US12486489B2, “Culture medium for testing drug resistance of H.pylori as well as preparation method and use thereof” (priority 2022, dated 2025)
